Measured values taken from patent US8598132B2, “Glycosylated indolocarbazoles, method for obtaining same and uses thereof” (Universidad de Oviedo, priority 2008, dated 2013).

Target: T1, AurB (Homo sapiens, UniProt Q96GD4)
T1 construct: purchased Carna Biosciences
Experiment: LabChip (Caliper) kinase assay, AurB
Assay type: biochemical
Conditions: ATP at Km, read-out: CI50 (the source's name)
Method: The analysis of kinase activity described here was performed using LabChip (Caliper Life Sciences), specifically the Caliper LC3000 and the EZ Reader II instruments.
The kinase assay used measures the conversion of a fluorescent peptide (substrate) to a phosphorylated product. The reaction mixture, in a microplate well, is introduced by a capillary in a chip where the non-phosphorylated substrate and the phosphorylated product are separated by […]. The intensity of the fluorescent signal over time is related to the reaction progress. The phosphorylated product migrates quicker than the non-phosphorylated substrate and the signals of the two forms of the peptide appear as differentiated peaks. The Caliper determines the peak height and calculates the ratio of product to the peak sum (P/(P+S)). This value is used to compare wells with compounds and wells with controls and thus determine the % of inhibition for the given product. […]
The compounds were dissolved in 100% DMSO and were diluted at 25 times the final concentration desired for the assay. […] The microplates were read by the LabChip 3000 using a 12-channel LabChip. […]

T1 sequence (Q96GD4 whole entry): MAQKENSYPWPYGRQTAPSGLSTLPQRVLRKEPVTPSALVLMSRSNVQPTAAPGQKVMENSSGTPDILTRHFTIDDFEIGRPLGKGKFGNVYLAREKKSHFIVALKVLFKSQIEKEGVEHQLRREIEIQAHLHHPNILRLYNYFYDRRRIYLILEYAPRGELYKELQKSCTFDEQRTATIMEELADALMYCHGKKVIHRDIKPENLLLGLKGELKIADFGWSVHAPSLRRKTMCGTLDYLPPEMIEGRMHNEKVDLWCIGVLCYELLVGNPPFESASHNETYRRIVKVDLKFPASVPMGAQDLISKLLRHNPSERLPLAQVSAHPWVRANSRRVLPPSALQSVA
T1 sequence (Q9NQS7 803-918 partner limits assumed): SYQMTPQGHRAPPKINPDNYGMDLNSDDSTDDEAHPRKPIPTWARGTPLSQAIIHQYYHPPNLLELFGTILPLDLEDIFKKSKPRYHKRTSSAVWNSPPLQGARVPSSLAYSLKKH

SMILES	IC50 [nM]
C[C@]12O[C@H](C[C@@H](O)[C@H]1O)n1c3ccccc3c3c4c(c5c6ccccc6n2c5c31)C(=O)NC4=O [formula (IX), N^12-5′(S)-N^13-1′-(R)-L-digitoxosylarcyriaflavin]	4.5
C[C@]12O[C@H](C[C@H](O)[C@H]1O)n1c3ccccc3c3c4c(c5c6ccccc6n2c5c31)CNC4=O [formula (XVII), N^12-5′(S)-N^13-1′-(R)-L-olivosyl-k252c]	6.8
